# Source: article PMC11520566, “Discovery of pyrazole-based analogs as CDK2 inhibitors with apoptotic-inducing activity: design, synthesis and molecular dynamics study” (RSC Advances, 2024)
# Like-named read-outs stand apart in the source and are kept apart here.
# How the values were obtained:
# NCI-H322M = test: NCI 60 five dose assay, Non-small cell lung cancer; type: cell-based, human
# HS 578T = test: NCI 60 five dose assay, Breast cancer; type: cell-based, human
# UACC-257 = test: NCI 60 five dose assay, Melanoma; type: cell-based, human
# CAKI-1 = test: NCI 60 five dose assay, Renal cancer; type: cell-based, human
# M14 = test: NCI 60 five dose assay, Melanoma; type: cell-based, human
# NCI 60 cell panel = test: NCI 60 five dose assay, subpanel and full panel means; type: cell-based, human
# CDK2/cyclin A2 = molecular target: T1, CDK2/cyclin A2 (Homo sapiens, UniProt P24941); test: In vitro CDK2/cyclin A2 enzyme inhibition assay (ADP-Glo); type: biochemical
# T1 construct: purchased Promega
# Procedure: The studied pyrazoles 2a–g, 4, 7a–d, 8a and b, 9, and 10 were assessed for their in vitro CDK2/cyclin A2 enzyme inhibition assay at a concentration of 50 μM using the Promega CDK2/cyclinA2 kinase enzyme system coupled with the ADP-Glo assay.[32,33] The percentage enzyme activity was the lowest for five compounds, namely 4, 7a, 7d, 8a, and 9 with values of 24.7%, 17.5%, 11.5%, 27.1% and 14.5%, respectively.
# The in vitro assay of CDK2/cyclin A2 protein kinase was carried out on all the synthesized compounds. The kinase assay was performed in a 96-well white plate with a reaction volume of […]. The reaction was performed in four steps as follows: 2.5 μL of the test compounds or 5% DMSO and 5 μL of CDK2/cyclin A2 enzyme (1.6 ng) was added, and then incubated at room temperature for 30 min. Then, 5 μL of 50 μM ATP. 0.1 μg μL^−1 histone H1 was added and incubated for 10 min. The reaction was stopped by adding 12.5 μL of ADP-Glo™ Reagent and incubated for 40 min. Then 25 μL of kinase detection reagent was added to each well and incubated for 60 min before detection with luminescence (Integration time 0.5–1 s).[25,32,33]
# NCI-H23 = test: NCI 60 single dose screen, Non-small cell lung cancer; type: cell-based, human; settings: single dose 10 μM
# Procedure: The newly synthesized pyrazoles 2a–g, 7a–d, 8a and b, 9, and 10 were submitted to the National Cancer Institute (NCI) Developmental Therapeutics Program (http://www.dtp.nci.nih.gov) for assessment of their potential antiproliferative activity against a panel of NCI 60 cancer cell lines. All compounds were approved for screening against the approved 60 cancer cell lines at a single dose of 10 μM. The human cancer cell lines were derived from 9 variant cancer types including leukemia, melanoma, lung, colon, CNS, ovarian, renal, prostate and breast cancers. The results are presented as percentage of growth inhibition (GI%) of the screened compounds against the full panel of cell lines.
# Under sterile conditions, the cell lines were grown in RPMI 1640 media (Gibco, NY, USA) supplemented with 10% fetal bovine serum (Biocell, CA, USA), and […] cell/mL was used to test the growth inhibition activity of the synthesized compounds. The compounds with concentrations ranging from 0.01 to 100 μM were prepared in phosphate buffer saline. Each compound was initially solubilized in dimethyl sulfoxide (DMSO); however, each final dilution contained less than 1% DMSO. Solutions of different concentrations (0.2 mL) were pipetted into the separate well of a microtiter tray in duplicate. Cell culture (1.8 mL) containing a cell population of […] cells per mL was pipetted into each well. Controls, containing only phosphate buffer saline and DMSO at identical dilutions, were also prepared in the same manner. These cultures were incubated in a humidified incubator at 37 °C. The incubator was supplied with 5% CO2 atmosphere. After 48 h, the cells in each well were diluted 10 times with saline and counted using a Coulter counter. The counts were corrected for the dilution.[34]
# BT-549 = test: NCI 60 five dose assay, Breast cancer; type: cell-based, human
# 786-0 = test: NCI 60 five dose assay, Renal cancer; type: cell-based, human
# PC-3 = test: NCI 60 five dose assay, Prostate cancer; type: cell-based, human
# [1] = Homo sapiens, read-out: LC50 (the source's name)
structure (smiles),measurement,setting,value
"CC(=NNc1ccc(S(N)(=O)=O)cc1)c1ccc(NN=C2C(=O)NN=C2Nc2ccccc2)cc1 [Compound 4, 4-(2-(1-(4-(2-(5-oxo-3-(phenylamino)-1,5-dihydro-4H-pyrazol-4-ylidene)hydrazinyl)phenyl)ethylidene)hydrazinyl)benzene sulfonamide]",GI50,NCI-H322M; Homo sapiens,3.72 µM
same,CC50,NCI-H322M; [1],41.9 µM
same,Percent Growth,NCI-H322M; Log10 Concentration -4.0 Molar,-93%
same,Percent Growth,NCI-H322M; Log10 Concentration -5.0 Molar,21%
same,Percent Growth,NCI-H322M; Log10 Concentration -6.0 Molar,89%
same,Percent Growth,NCI-H322M; Log10 Concentration -7.0 Molar,99%
same,Percent Growth,NCI-H322M; Log10 Concentration -8.0 Molar,103%
same,GI50,HS 578T; Homo sapiens,3.31 µM
same,CC50,HS 578T; [1],> 100 µM
same,Percent Growth,HS 578T; Log10 Concentration -4.0 Molar,-28%
same,Percent Growth,HS 578T; Log10 Concentration -5.0 Molar,11%
same,Percent Growth,HS 578T; Log10 Concentration -6.0 Molar,92%
same,Percent Growth,HS 578T; Log10 Concentration -7.0 Molar,93%
same,Percent Growth,HS 578T; Log10 Concentration -8.0 Molar,85%
same,GI50,UACC-257; Homo sapiens,3.97 µM
same,CC50,UACC-257; [1],75.5 µM
same,Percent Growth,UACC-257; Log10 Concentration -4.0 Molar,-59%
same,Percent Growth,UACC-257; Log10 Concentration -5.0 Molar,17%
same,Percent Growth,UACC-257; Log10 Concentration -6.0 Molar,99%
same,Percent Growth,UACC-257; Log10 Concentration -7.0 Molar,93%
same,Percent Growth,UACC-257; Log10 Concentration -8.0 Molar,89%
same,GI50,CAKI-1; Homo sapiens,12.5 µM
same,CC50,CAKI-1; [1],50.1 µM
same,Percent Growth,CAKI-1; Log10 Concentration -4.0 Molar,-100%
same,Percent Growth,CAKI-1; Log10 Concentration -5.0 Molar,66%
same,Percent Growth,CAKI-1; Log10 Concentration -6.0 Molar,96%
same,Percent Growth,CAKI-1; Log10 Concentration -7.0 Molar,102%
same,Percent Growth,CAKI-1; Log10 Concentration -8.0 Molar,96%
same,GI50,M14; Homo sapiens,2.83 µM
same,CC50,M14; [1],35.1 µM
same,Percent Growth,M14; Log10 Concentration -4.0 Molar,-80%
same,Percent Growth,M14; Log10 Concentration -5.0 Molar,-14%
same,Percent Growth,M14; Log10 Concentration -6.0 Molar,103%
same,Percent Growth,M14; Log10 Concentration -7.0 Molar,101%
same,Percent Growth,M14; Log10 Concentration -8.0 Molar,93%
same,GI50,"NCI 60 cell panel; Colon cancer subpanel, read-out: MG-MID for GI50",3.33 µM
same,GI50,"NCI 60 cell panel; Homo sapiens, 60 cell, Breast cancer subpanel, read-out: MG-MID for GI50",2.36 µM
same,GI50,"NCI 60 cell panel; Homo sapiens, 60 cell, CNS cancer subpanel, read-out: MG-MID for GI50",2.39 µM
same,GI50,"NCI 60 cell panel; Homo sapiens, 60 cell, Colon cancer subpanel, read-out: MG-MID for GI50",3.33 µM
same,GI50,"NCI 60 cell panel; Homo sapiens, 60 cell, Leukemia subpanel, read-out: MG-MID for GI50",2.42 µM
same,GI50,"NCI 60 cell panel; Homo sapiens, 60 cell, Melanoma subpanel, read-out: MG-MID for GI50",2.47 µM
same,GI50,"NCI 60 cell panel; Homo sapiens, 60 cell, Non-small cell lung cancer subpanel, read-out: MG-MID for GI50",4.79 µM
same,GI50,"NCI 60 cell panel; Homo sapiens, 60 cell, Ovarian cancer subpanel, read-out: MG-MID for GI50",4.19 µM
same,GI50,"NCI 60 cell panel; Homo sapiens, 60 cell, Prostate cancer subpanel, read-out: MG-MID for GI50",3.13 µM
same,GI50,"NCI 60 cell panel; Homo sapiens, 60 cell, Renal cancer subpanel, read-out: MG-MID for GI50",9.18 µM
same,GI50,"NCI 60 cell panel; Homo sapiens, 60 cell, against almost the whole panel of cancer cell lines, read-out: GI50 range",1.1 to 5.9 µM
same,GI50,"NCI 60 cell panel; Homo sapiens, 60 cell, average over all cell lines, read-out: Full panel MG-MID (GI50)",3.81 µM
same,GI50,"NCI 60 cell panel; Homo sapiens, 60 cell, range over the nine subpanels, read-out: subpanel GI50 (MG-MID) range",2.36 to 9.17 µM
same,GI50,"NCI 60 cell panel; Melanoma subpanel, read-out: MG-MID for GI50",2.48 µM
same,GI50,"NCI 60 cell panel; Prostate cancer subpanel, read-out: MG-MID for GI50",3.14 µM
same,Selectivity index,NCI 60 cell panel; full panel MG-MID / Breast cancer subpanel MG-MID,1.614
same,Selectivity index,NCI 60 cell panel; full panel MG-MID / CNS cancer subpanel MG-MID,1.595
same,Selectivity index,NCI 60 cell panel; full panel MG-MID / Colon cancer subpanel MG-MID,1.143
same,Selectivity index,NCI 60 cell panel; full panel MG-MID / Leukemia subpanel MG-MID,1.574
same,Selectivity index,NCI 60 cell panel; full panel MG-MID / Melanoma subpanel MG-MID,1.539
same,Selectivity index,NCI 60 cell panel; full panel MG-MID / Non-small cell lung cancer subpanel MG-MID,0.795
same,Selectivity index,NCI 60 cell panel; full panel MG-MID / Ovarian cancer subpanel MG-MID,0.909
same,Selectivity index,NCI 60 cell panel; full panel MG-MID / Prostate cancer subpanel MG-MID,1.215
same,Selectivity index,NCI 60 cell panel; full panel MG-MID / Renal cancer subpanel MG-MID,0.415
same,percentage enzyme activity,CDK2/cyclin A2; at 50 μM,24.7%
same,IC50,"CDK2/cyclin A2; n = 3, read-out: IC50 against CDK2/cyclin A2",3.82 µM
same,Relative activity,"CDK2/cyclin A2; supplement S1, DMSO = 100, screen at 50 μM",24.7
same,GI%,NCI-H23,99.80%
same,GI50,BT-549; Homo sapiens,2.83 µM
same,CC50,BT-549; [1],31.1 µM
same,Percent Growth,BT-549; Log10 Concentration -4.0 Molar,-100%
same,Percent Growth,BT-549; Log10 Concentration -5.0 Molar,-1%
same,Percent Growth,BT-549; Log10 Concentration -6.0 Molar,92%
same,Percent Growth,BT-549; Log10 Concentration -7.0 Molar,105%
same,Percent Growth,BT-549; Log10 Concentration -8.0 Molar,94%
same,GI50,786-0; Homo sapiens,2.14 µM
same,CC50,786-0; [1],24.7 µM
same,Percent Growth,786-0; Log10 Concentration -4.0 Molar,-94%
same,Percent Growth,786-0; Log10 Concentration -5.0 Molar,-22%
same,Percent Growth,786-0; Log10 Concentration -6.0 Molar,85%
same,Percent Growth,786-0; Log10 Concentration -7.0 Molar,96%
same,Percent Growth,786-0; Log10 Concentration -8.0 Molar,92%
same,GI50,PC-3; Homo sapiens,3.06 µM
same,CC50,PC-3; [1],35.8 µM
same,Percent Growth,PC-3; Log10 Concentration -4.0 Molar,-95%
same,Percent Growth,PC-3; Log10 Concentration -5.0 Molar,5%
same,Percent Growth,PC-3; Log10 Concentration -6.0 Molar,92%
same,Percent Growth,PC-3; Log10 Concentration -7.0 Molar,95%
same,Percent Growth,PC-3; Log10 Concentration -8.0 Molar,93%
